Assay results from patent US12295397B2, “Dietary peptides” (Diet4Life APS, priority 2015, dated 2025).
No end group written: not given here.

Experiments:
[1] = target: pepsin (Homo sapiens, UniProt P0DJD8); assay: Pepsin digestion of meat, resistance of peptide to pepsin degradation; format: in vitro ADME; settings: present in proteolytic digests
Procedure: Minced meat is diluted 1-10 times with distilled water, adjusted to pH 1-3 with hydrochloric acid, and incubated with 0.01-10% pepsin (w/w) at 4-40° C. for ½-12 h with adequate mixing. Insoluble material is removed by centrifugation at 100-1000×g for 3-30 min, and supernatant is neutralized with NaOH. Using sterile conditions, low molecular weight peptides in supernatant are recovered by tangential ultrafiltration at 4-40° C. for ½-12 h, and excess water is evaporated at 25-50° C. for up to 12 h. The concentrated dialysate is tested for bioactivity with cells and used for further purification by HPLC.

[2] = Stability of peptides in Fetal Bovine Serum, remaining activity read out in intestinal cells; format: in vitro ADME; settings: fold more stable than NT(8-13)
Procedure: All peptides were incubated at 10^−5 M with Fetal Bovine Serum (FBS; final concentration of 66.7%) (Sigma Aldrich, Denmark) at 37° C. for 3 hours. The peptide degradation was terminated using 1 M phosphoric acid (final 0.4 M, pH ˜1.2) and neutralized to pH 7.2-7.4 with NaOH before testing activity in intestinal cells. As for small intestine homogenates, a zero degradation control was included for each peptide.
DC7-2, NT, DKPYIL (SEQ ID NO: 8) and NT-(8-13) (final concentration of 10^-6 M) were incubated either with FBS or with 270× diluted intestinal homogenate at 37° C. for various time points with shaking. Degradation was stopped with 1 M phosphoric acid and the samples were subsequently neutralized and immediately tested with intestinal cells as described above. Control for zero degradation was included for each peptide as above. […]
(§1) Notes for Tables 1) Stability in serum is expressed as fraction of peptide activity left after 10 min of incubation in serum at 37° C. compared with undigested sample as described in Examples. 2) Stability in intestine is expressed as % activity left after 30 min incubation in intestine homogenate at 37° C. as described in Examples.

[3] = Stability of peptides in small intestine homogenate, remaining activity read out in intestinal cells; format: in vitro ADME, mice; settings: fold more stable than NT(8-13)
Procedure: Small intestines from 20 Swiss-Webster males were homogenized in 350 ml Dulbecco's phosphate-buffered saline (PBS) (pH 7.4) (ThermoFischer Scientific, Denmark) with a IKA® basic 18 Ultra-Turrax tissue homogenizer set a speed 5 followed by filtration using 100 μm nylon mesh filter. Protein concentration was 6 mg/ml using the bicinconinic acid assay (ThermoFischer Scientific, Denmark) and bovine serum albumin as standard. The intestine homogenate was diluted 10 times in HBSS containing 25 mM HEPES (pH 7.4), and further diluted 30×, 90×, 270×, 810× or 2430× before incubation with peptides. All solutions were prewarmed to 37° C. before mixing with peptide solutions.
Peptides were incubated at 10^−5 M with dilutions of small intestine homogenate at 37° C. for 90 minutes with shaking. Reactions were stopped by addition of 1 M phosphoric acid (final 0.4 M, pH ˜1.2). Each peptide incubation mix was then neutralized with NaOH to pH 7.2-7.4 and immediately tested for activity in intestinal cells. […]
as §1

pepsin, sequence (P0DJD8 63-388): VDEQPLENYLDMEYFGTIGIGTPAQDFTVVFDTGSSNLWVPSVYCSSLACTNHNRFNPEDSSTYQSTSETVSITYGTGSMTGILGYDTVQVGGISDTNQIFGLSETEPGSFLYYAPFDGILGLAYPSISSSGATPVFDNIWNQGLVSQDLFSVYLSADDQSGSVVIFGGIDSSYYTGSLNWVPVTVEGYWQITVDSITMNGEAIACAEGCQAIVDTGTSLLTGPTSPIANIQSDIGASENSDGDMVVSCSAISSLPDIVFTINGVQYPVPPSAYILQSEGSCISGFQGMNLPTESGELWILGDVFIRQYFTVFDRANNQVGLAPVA

Substance | Resistance to pepsin degradation [1] | Stability in serum relative to neurotensin (8-13) RRPYIL [2] | Stability in intestine homogenate relative to neurotensin (8-13) RRPYIL [3]
ASDKPYIL [Peptide 36036, A SDKPYIL] | resistant to pepsin degradation |  | 
DKPYIL [Peptide 35978, D KPYIL] |  | around 100 times | 100-1000 ×
